According to US4950775A, “Antihypercholesterolemic compounds and synthesis thereof” (University of California, priority 1985, dated 1990):

Legend:
HMG CoA reductase [1] = target: T1, HMG CoA reductase (Rattus norvegicus, UniProt P51639); test: Inhibition of HMG CoA reductase catalysis in rat liver microsomes (radioactive assay of mevalonate production); type: biochemical; conditions: for IC50: pH 6.8, 37° C., 15-min. incubation, four concentrations in triplicate, 14C-HMG CoA substrate
T1 construct: measured with rat liver microsomes; from tissue; host or cells: rat liver microsomes
T1 sequence (P51639 1-887): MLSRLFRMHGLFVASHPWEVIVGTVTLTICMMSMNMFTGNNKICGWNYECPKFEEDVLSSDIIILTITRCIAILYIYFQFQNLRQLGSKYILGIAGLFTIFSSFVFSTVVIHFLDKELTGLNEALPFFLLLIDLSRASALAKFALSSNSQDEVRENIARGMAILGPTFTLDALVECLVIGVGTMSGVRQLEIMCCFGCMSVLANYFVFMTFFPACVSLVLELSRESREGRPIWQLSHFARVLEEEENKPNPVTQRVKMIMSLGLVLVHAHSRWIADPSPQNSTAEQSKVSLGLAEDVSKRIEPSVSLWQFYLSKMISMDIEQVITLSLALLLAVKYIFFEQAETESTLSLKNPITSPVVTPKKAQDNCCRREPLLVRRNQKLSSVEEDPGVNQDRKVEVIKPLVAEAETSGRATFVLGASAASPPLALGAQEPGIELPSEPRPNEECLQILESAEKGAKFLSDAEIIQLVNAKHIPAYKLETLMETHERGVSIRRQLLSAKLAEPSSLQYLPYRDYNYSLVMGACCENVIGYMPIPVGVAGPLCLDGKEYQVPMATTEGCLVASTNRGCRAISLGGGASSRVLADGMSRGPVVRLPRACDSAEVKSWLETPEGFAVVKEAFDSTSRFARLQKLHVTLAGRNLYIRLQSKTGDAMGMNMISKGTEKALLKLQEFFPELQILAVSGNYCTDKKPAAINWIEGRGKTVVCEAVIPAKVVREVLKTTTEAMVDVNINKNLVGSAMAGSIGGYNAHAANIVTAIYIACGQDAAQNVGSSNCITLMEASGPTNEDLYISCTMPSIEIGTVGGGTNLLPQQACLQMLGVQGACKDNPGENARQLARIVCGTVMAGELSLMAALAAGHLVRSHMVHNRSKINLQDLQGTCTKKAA
Protocol: The antihypercholesterolemic activity of each novel compound was measured using the following test. The potency of compactin and each analog as an inhibitor of HMG CoA reductase catalysis was measured with rat liver microsomes. […] Four concentrations of each compound ranging over four appropriate orders of magnitude were tested. The effect on the initial velocity of mevalonate production was determined in a radioactive assay system. […] All components but the ^14 C-HMG CoA were preincubated at 37° C. for 10 min. The inhibitor in 10 μL of DMSO was then added (control samples received DMSO only) and a 15-min. incubation was initiated by the addition of substrate. Catalysis was terminated with 33% aqueous KOH (50 μL). After 30 min., 25 μL of aqueous 0.05% bromophenol, 70000 dpm of (5-^3 H)-mevalono-lactone in 25 μL of H2 O (recovery standard) and 90 μL of 5 N aqueous HCl were added. […] Quantities of collected ^14 C-mevalonate mevalonate were corrected for ^3 -mevalonate recovery before conversion to catalytic rates. Each inhibitor concentration was assayed in triplicate and conversion of (S)-HMG Coenzyme A to product was always less than 20%. Rates in the presence of inhibitors were compared to control rates to generate % inhibition values. When % inhibition was plotted against inhibitor concentration, the resulting curve provided an IC50 value for the inhibitor in question, IC50 being defined as the concentration required to inhibit the enzyme by 50% of control.

HMG CoA reductase [2] = conditions: background, U.S. Pat. Nos. 4,049,495, 4,137,332, 3,983,140; cited from earlier work
[3] = test system: biosynthesis of cholesterol; conditions: background; cited from earlier work

| SMILES | IC50 (HMG CoA reductase [1]) [nM] | antihypercholesterolemic activity (HMG CoA reductase inhibition, in words) (HMG CoA reductase [1]) | inhibition of HMG CoA reductase (in words) (HMG CoA reductase [2]) | inhibition of the biosynthesis of cholesterol (in words) [3] |
| --- | --- | --- | --- | --- |
| CC[C@H](C)C(=O)O[C@H]1CCC=C2C=C[C@H](C)[C@H](/C=C/C(=O)C[C@@H](O)CC(=O)O)[C@H]21 [Formula 41*] | 230 | possessing antihypercholesterolemic activity |  |  |
| CC[C@H](C)C(=O)O[C@H]1C[C@@H](C)C=C2C=C[C@H](C)[C@H](CC[C@@H]3C[C@@H](O)CC(=O)O3)[C@H]21 [Formula 2] |  |  | display utility as inhibitors of the enzyme hydroxymethylglutaryl coenzyme A reductase | potent as inhibitors of the biosynthesis of cholesterol |
| CC[C@H](C)C(=O)O[C@H]1CCC=C2C=C[C@H](C)[C@H](COC(=O)C[C@@H](O)CC(=O)O)[C@H]21 [Formula 63*, (1S,2S,8S,8aR)-1-[(S)-(3-Hydroxy-4-carboxybutyryl)oxymethyl]-2-methyl-8-[(S)-(2methylbutyryl)oxy]-1,2,6,7,8a-hexahydronaphthalene] | 300 | possessing antihypercholesterolemic activity |  |  |

Further lines, with some results ahead:

| IC50 (HMG CoA reductase [1]) [nM] | SMILES | antihypercholesterolemic activity (HMG CoA reductase inhibition, in words) (HMG CoA reductase [1]) | inhibition of HMG CoA reductase (in words) (HMG CoA reductase [2]) | inhibition of the biosynthesis of cholesterol (in words) [3] |
| --- | --- | --- | --- | --- |
| 9 | CC[C@H](C)C(=O)O[C@H]1CCC=C2C=C[C@H](C)[C@H](CC[C@@H]3C[C@@H](O)CC(=O)O3)[C@H]21 [Formula 1] |  | display utility as inhibitors of the enzyme hydroxymethylglutaryl coenzyme A reductase | potent as inhibitors of the biosynthesis of cholesterol |
| 16 | CC[C@H](C)C(=O)O[C@H]1CCC=C2C=C[C@H](C)[C@H](CCC(=O)C[C@@H](O)CC(=O)O)[C@H]21 [Formula 53] | possessing antihypercholesterolemic activity |  |  |
